The values that follow are results of earlier work, collected in US8663696B2, “Film delivery system for tetrahydrolipstatin” (MonoSol Rx, LLC, priority 2007, dated 2014).

The test system of one data set is lipase. Particulars: background statement on the drug.
The conditions of data set [1]: natural crystalline state.

SMILES strings stand for the structures.

As for `CCCCCCCCCCC[C@@H](C[C@@H]1OC(=O)[C@H]1CCCCCC)OC(=O)[C@H](CC(C)C)NC=O` [Tetrahydrolipstatin, (2S,3S,5S)-5-[(S)-2-formamido-4-methyl-valeranyloxy]-2-hexyl-3-hexadecanoic acid lactone], the “absorption of dietary fat blocked” value in the data set on lipase was “approximately 30%”. The water solubility result in data set [1] is “very water-insoluble”.
